Laboratory results taken from ChEMBL document CHEMBL3046519, “Synthesis and biological evaluation of some pyrazole derivatives as anti-inflammatoryantibacterial agents” (2012).
Values after ≈ are worked out from the molar mass of the structure shown. Active and inactive are the calls of the source. The rule behind the calls is not given here.

Legend:
Bacillus subtilis [1] = assay: Antibacterial activity against Bacillus subtilis MTCC 121 by NCCLS broth macrodilution method; assay type: functional
Pseudomonas aeruginosa [2] = assay: microbe, parasite or virus in culture; settings: MTCC 741, 24 h, read-out: DIZ
Staphylococcus aureus [3] = assay: Antibacterial activity against Staphylococcus aureus MTCC 96 by NCCLS broth macrodilution method; assay type: functional
Bacillus subtilis [4] = assay: Antibacterial activity against Bacillus subtilis MTCC 121 at 4 mg/ml after 24 hr by agar well diffusion method; assay type: functional; settings: MTCC 121, 24 h, read-out: DIZ
Staphylococcus aureus [5] = assay: Antibacterial activity against Staphylococcus aureus MTCC 96 at 4 mg/ml after 24 hr by agar well diffusion method; assay type: functional; settings: MTCC 96, 24 h, read-out: DIZ
Rattus norvegicus [6] = organism: Rattus norvegicus; assay: animal or person; settings: Wistar albino, ip, read-out: INH
Rattus norvegicus [7] = assay: Anti-inflammatory activity in Rattus norvegicus Wistar albino (rat) assessed as inhibition of carrageenan-induced paw edema at 10 mg/kg, ip administered for 30 min prior to carrageenan challenge measured at 4 hr relative to control; assay type: functional; settings: route intraperitoneal
Rattus norvegicus [8] = organism: Rattus norvegicus; assay: animal or person; settings: Wistar albino, ip, read-out: INH; remark: listed apart in the source
Rattus norvegicus [9] = assay: Anti-inflammatory activity in Rattus norvegicus Wistar albino (rat) assessed as inhibition of carrageenan-induced paw edema at 10 mg/kg, ip administered for 30 min prior to carrageenan challenge measured at 3 hr relative to control; assay type: functional; settings: route intraperitoneal
Rattus norvegicus [10] = assay: Anti-inflammatory activity in Rattus norvegicus Wistar albino (rat) assessed as inhibition of carrageenan-induced paw edema at 50 mg/kg, po administered for 30 min prior to carrageenan challenge measured at 1 hr relative to control; assay type: functional
Escherichia coli = assay: Antibacterial activity against Escherichia coli MTCC 1652 at 4 mg/ml after 24 hr by agar well diffusion method; assay type: functional, organism-based
Rattus norvegicus [11] = assay: Anti-inflammatory activity in Rattus norvegicus Wistar albino (rat) assessed as inhibition of carrageenan-induced paw edema at 50 mg/kg, po administered for 30 min prior to carrageenan challenge measured at 3 hr relative to control; assay type: functional
Rattus norvegicus [12] = assay: Anti-inflammatory activity in Rattus norvegicus Wistar albino (rat) assessed as inhibition of carrageenan-induced paw edema at 50 mg/kg, po administered for 30 min prior to carrageenan challenge measured at 4 hr relative to control; assay type: functional
Pseudomonas aeruginosa [13] = settings: MTCC 741, 4 mg/ml
Rattus norvegicus [14] = assay: Anti-inflammatory activity in Rattus norvegicus Wistar albino (rat) assessed as inhibition of carrageenan-induced paw edema at 50 mg/kg, po administered for 30 min prior to carrageenan challenge measured at 2 hr relative to control; assay type: functional

| SMILES | MIC (Bacillus subtilis [1]) [µg/mL] | zone of inhibition at 4000 µg/mL (Pseudomonas aeruginosa [2]) [mm] | MIC (Staphylococcus aureus [3]) [µg/mL] | zone of inhibition at 4000 µg/mL (Bacillus subtilis [4]) [mm] | zone of inhibition at 4000 µg/mL (Staphylococcus aureus [5]) [mm] | inhibition in vivo at 10 mg/kg (Rattus norvegicus [6]) [%] | inhibition in vivo at 10 mg/kg (Rattus norvegicus [7]) [%] | inhibition in vivo at 10 mg/kg (Rattus norvegicus [8]) [%] | inhibition in vivo at 10 mg/kg (Rattus norvegicus [9]) [%] | inhibition in vivo at 50 mg/kg (Rattus norvegicus [10]) [%] | diameter of the inhibition zone (DIZ) (Escherichia coli) | inhibition in vivo at 50 mg/kg (Rattus norvegicus [11]) [%] | inhibition in vivo at 50 mg/kg (Rattus norvegicus [12]) [%] | DIZ (Pseudomonas aeruginosa [13]) | inhibition in vivo at 50 mg/kg (Rattus norvegicus [14]) [%] |
| --- | --- | --- | --- | --- | --- | --- | --- | --- | --- | --- | --- | --- | --- | --- | --- |
| O=C(O)c1cn(C2CC2)c2cc(N3CCNCC3)c(F)cc2c1=O [CIPROFLOXACIN] | 5 (≈ 15.1 µM) | 23.3 | 5 (≈ 15.1 µM) | 25.6 | 26.3 | – | – | – | – | – | – | – | – | – | – |
| COc1ccc2c(c1)c(CC(=O)O)c(C)n2C(=O)c1ccc(Cl)cc1 [INDOMETHACIN] | – | – | – | – | – | 41 | 78 | 79 | 78 | – | – | – | – | – | – |
| NS(=O)(=O)c1ccc(-n2cc(/C=N/Nc3nc(-c4ccccc4)cs3)c(-c3ccccc3)n2)cc1 | > 128 | – | > 128 | 14.6 | 14.3 | – | – | – | – | 33 | inactive | 69 | 72 | inactive | 71 |
| NS(=O)(=O)c1ccc(-n2cc(/C=N/Nc3nc(-c4ccc(Cl)cc4)cs3)c(-c3ccc(Cl)cc3)n2)cc1 | > 128 | – | > 128 | 15 | 14.6 | – | – | – | – | 28 | inactive | 73 | 58 | inactive | 67 |
| Cc1ccc(-c2csc(N/N=C/c3cn(-c4ccc(S(N)(=O)=O)cc4)nc3-c3ccc(C)cc3)n2)cc1 | > 128 | – | > 128 | 14 | 13.6 | – | – | – | – | 24 | inactive | 75 | 61 | inactive | 72 |
